These results are taken from patent US20240343754A1, “7-SUBSTITUTED 7-DEAZAADENINE-CONTAINING 2',3'-CYCLIC DINUCLEOTIDES” (USTAV ORGANICKE CHEMIE A BIOCHEMIE AV CR, V. V. I., priority 2021, published 2024).

Series [1] in a line: Cytotoxic effect on PBMCs (CellTiter-Glo Luminescent Cell Viability Assay). Format: cell-based. The following applies: human, 16 h incubation, mean from three different PBMC donors. The protocol:
Briefly, buffy coats were obtained from the Institute of Hematology and Blood Transfusion (Prague, Czech Republic). Informed written consent was signed by each volunteer. Isolation of PBMCs was performed on Ficoll density gradient centrifugation (Ficoll Paque Plus, GE Healthcare, USA) in SepMate tubes (SepMate PBMC Isolation Tubes, Stemcell Technologies, Canada). Obtained PBMCs were washed using PBS with 2 mM EDTA, and then seeded onto 96-well U-shape plates at density 500,000 cells per well in RPMI 1640 media with 10% (v/v) heat inactivated FBS. Serially diluted CDNs were added to cells and cells were incubated for 16 h (37° C., 5% CO2). After incubation, medium was collected to determine levels of INFα and INFγ using ProcartaPlex Assays and MAGPIX System (Merck, Germany) according to the manufacturer's instructions. Cytotoxic effect of CDNs on PBMCs was determined using CellTiter-Glo® Luminescent Cell Viability Assay (Promega Corporation, USA) according to manufacturer's instruction.

The test system of series [2] is Peripheral blood mononuclear cells (PBMC). Description: PBMC assay: induction of cytokines INFα and INFγ. Format: cell-based. The following applies: Homo sapiens, PBMCs, 16 h incubation, mean from three different PBMC donors.
The next series addresses wt hSTING (Homo sapiens, UniProt Q86WV6). The series can be described thus: Standard 293T reporter cell-based assay (IRF-3 dependent firefly luciferase reporter). (In general: Reporter assays use an easily measured gene product as a stand-in for the process of interest.)
The mark [3] stands for this setting: read-out: PBMC assay EC50 INF α.
[4] abbreviates: read-out: PBMC assay EC50 INF γ.

Molecules are shown by their SMILES. Where two headings read alike, the source gives them in different places.

wt hSTING, sequence (Q86WV6 whole entry H232R): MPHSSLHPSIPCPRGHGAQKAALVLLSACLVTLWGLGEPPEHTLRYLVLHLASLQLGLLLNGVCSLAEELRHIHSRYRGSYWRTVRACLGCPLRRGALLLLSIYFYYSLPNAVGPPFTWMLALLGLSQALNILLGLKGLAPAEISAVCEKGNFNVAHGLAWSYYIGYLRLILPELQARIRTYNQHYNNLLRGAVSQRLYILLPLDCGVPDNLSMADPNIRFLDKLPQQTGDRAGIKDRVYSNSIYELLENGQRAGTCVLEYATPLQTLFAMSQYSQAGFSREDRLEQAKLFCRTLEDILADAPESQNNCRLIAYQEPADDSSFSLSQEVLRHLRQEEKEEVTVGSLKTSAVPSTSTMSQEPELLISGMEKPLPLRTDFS
Experimental for wt hSTING: Briefly, the day before testing cells were seeded onto 96-well white plates at density 250,000 cells per cm^2 in DMEM High glucose medium supplemented with 10% (v/v) heat inactivated fetal bovine albumin (FBS). The next day medium was removed, and cell were incubated for 7 h (37° C., 5% CO2) with serial dilution of compounds in medium. After incubation, Bright-Glo Luciferase Assay System reagent was added to cells and luminescence readout was performed on SPARK instrument (Tecan, Austria). EC50 values were determined using in software Prism (GraphPad, USA).

As usually defined, the CC50 is the concentration that lowers cell viability or growth by half. A high value points to lower toxicity to the cells. By EC50 is commonly meant the concentration giving half of the maximal effect. As to `Cc1cn([C@@H]2O[C@@H]3COP(=O)(O)O[C@@H]4[C@H](O)[C@@H](COP(=O)(O)O[C@H]3[C@H]2O)O[C@H]4n2cnc3c(=O)[nH]c(N)nc32)c2ncnc(N)c12` [Compound 1a, 2-amino-9-((5R,7R,8R,12aR,14R,15R,15aS,16R)-14-(4-amino-5-methyl-7H-pyrrolo[2,3-d]pyrimidin-7-yl)-2,10,15,16-tetrahydroxy-2,10-dioxidooctahydro-12H-5,8-methanofuro[3,2-l][1,3,6,9,11]pentaoxa[2,10]diphosphacyclotetradecin-7-yl)-1,9-dihydro-6H-purin-6-one], in series [1], the CC50 at 16 h is greater than 200 µM. Moreover, the values for the EC50 in series [2] (setting [3]) and in series [2] (setting [4]) were 30.6 µM and 7.8 µM, respectively.
The matching figures for `Nc1nc2c(ncn2[C@@H]2O[C@@H]3COP(=O)(O)O[C@H]4[C@@H](O)[C@H](n5cc(-c6ccco6)c6c(N)ncnc65)O[C@@H]4COP(=O)(O)O[C@@H]2[C@@H]3O)c(=O)[nH]1` [Compound 1i, 2-amino-9-((5R,7R,8R,12aR,14R,15R,15aS,16R)-14-(4-amino-5-(furan-2-yl)-7H-pyrrolo[2,3-d]pyrimidin-7-yl)-2,10,15,16-tetrahydroxy-2,10-dioxidooctahydro-12H-5,8-methanofuro[3,2-l][1,3,6,9,11]pentaoxa[2,10]diphosphacyclotetradecin-7-yl)-1,9-dihydro-6H-purin-6-one]: greater than 200 µM, 2.8 µM and 2.24 µM.
In series [1], `Nc1nc2c(ncn2[C@@H]2O[C@@H]3COP(=O)(O)O[C@H]4[C@@H](O)[C@H](n5cc(-c6cccs6)c6c(N)ncnc65)O[C@@H]4COP(=O)(O)O[C@@H]2[C@@H]3O)c(=O)[nH]1` [Compound 1j, 2-amino-9-((5R,7R,8R,12aR,14R,15R,15aS,16R)-14-(4-amino-5-(thiophen-2-yl)-7H-pyrrolo[2,3-d]pyrimidin-7-yl)-2,10,15,16-tetrahydroxy-2,10-dioxidooctahydro-12H-5,8-methanofuro[3,2-l][1,3,6,9,11]pentaoxa[2,10]diphosphacyclotetradecin-7-yl)-1,9-dihydro-6H-purin-6-one] showed a CC50 at 16 h greater than 200 µM. The EC50 in series [2] (setting [3]) was found to be 2.88 µM; in series [2] (setting [4]), 2.6 µM.
`Nc1nc2c(ncn2[C@@H]2O[C@@H]3COP(=O)(O)O[C@H]4[C@@H](O)[C@H](n5ccc6c(N)ncnc65)O[C@@H]4COP(=O)(O)O[C@@H]2[C@@H]3O)c(=O)[nH]1` [Compound 1n, 2-amino-9-((5R,7R,8R,12aR,14R,15R,15aS,16R)-14-(4-amino-7H-pyrrolo[2,3-d]pyrimidin-7-yl)-2,10,15,16-tetrahydroxy-2,10-dioxidooctahydro-12H-5,8-methanofuro[3,2-l][1,3,6,9,11]pentaoxa[2,10]diphosphacyclotetradecin-7-yl)-1,9-dihydro-6H-urin-6-one, reference compound] gave a CC50 at 16 h in series [1] greater than 200 µM. Moreover, the EC50 came out at 54.5 µM in series [2] (setting [3]) and 67.6 µM in series [2] (setting [4]).
On wt hSTING, `C#Cc1cn([C@@H]2O[C@@H]3COP(=O)(O)O[C@@H]4[C@H](O)[C@@H](OCP(=O)(O)O[C@H]3[C@H]2O)O[C@H]4n2cnc3c(=O)[nH]c(N)nc32)c2ncnc(N)c12` [Compound 53, 2-amino-9-((5R,7R,8R,12aR,14R,15R,15aS,16S)-14-(4-amino-5-ethynyl-7H-pyrrolo[2,3-d]pyrimidin-7-yl)-2,10,15,16-tetrahydroxy-2,10-dioxidooctahydro-5,8-methanofuro[3,2-l][1,3,6,8,11]pentaoxa[2,10]diphosphacyclotetradecin-7-yl)-1,9-dihydro-6H-purin-6-one, reference compound] had an EC50 of 109 µM.
